From patent US20070219239A1, “Nitrogen-containing heterocycle derivatives, pharmaceutical compositions, and methods of use thereof as antiviral agents” (priority 2006, published 2007)

test system: vaccinia virus; assay: microbe, parasite or virus in culture; format: cell-based; conditions: Orthopoxvirus vaccinia, BSC-40, in Chlorocebus sabaeus, read-out: EC50 (inhibition of viral replication)

SMILES | EC50
CC(C)C(=O)Nc1cc(C(=O)N[C@H](C)c2ccc(F)cc2)cc(-c2c[nH]c(-c3cc4ccccc4cn3)n2)c1 [Example 1] | ≤ 500 nM
C[C@@H](NC(=O)c1cc(Cl)cc(-c2c[nH]c(-c3cc4ccccc4cn3)n2)c1)c1ccc(F)cc1 [Example 5, N-[(1R)-1-(4-fluorophenyl)ethyl]-3-(2-isoquinoline-3-yl-1H-imidazol-4-yl)-5-chlorobenzamide] | ≤ 500 nM
C[C@@H](NC(=O)c1cccc(-c2c[nH]c(-c3cc4ccccc4cn3)n2)c1)c1ccc(F)cc1 [Example 6, N-[(1R)-1-(4-fluorophenyl)ethyl]-3-(2-isoquinoline-3-yl-1H-imidazol-4-yl)benzamide] | ≤ 500 nM
C[C@@H](NC(=O)c1cc(NC(=O)C(C)(C)C)cc(-c2c[nH]c(-c3cc4ccccc4cn3)n2)c1)c1ccc(F)cc1 [Example 15] | ≤ 500 nM
C[C@@H](NC(=O)c1cc(NC(=O)C(C)(C)F)cc(-c2c[nH]c(-c3cc4ccccc4cn3)n2)c1)c1ccc(F)cc1 [Example 17, N-[(1R)-1-(4-fluorophenyl)ethyl]-3-(2-isoquinoline-3-yl-1H-imidazol-4-yl)-5-(2-fluoroisobutyrylamino)benzamide] | ≤ 500 nM
